What was measured:
[1] = biological target: T1, GPR6 (Homo sapiens, UniProt P46095); experiment: GPR6 antagonist functional cAMP assay (LANCE Ultra cAMP TR-FRET, CHO cells stably expressing GPR6); assay type: cell-based
T1 construct: expressed in transfected cells; host or cells: CHO cells
Method in brief: (§1)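 We measure cAMP by TR-FRET (665 nm) in cells held in glucose-containing Krebs-Ringer buffer with BSA and a PDE inhibitor, after a 45 min, 37 °C compound incubation. IC50s derive from a four-parameter logistic fit.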

[2] = biological target: T2, GPR3 (Homo sapiens, UniProt P46089); experiment: GPR3 antagonist functional cAMP assay (LANCE Ultra cAMP TR-FRET, CHO cells stably expressing GPR3); assay type: cell-based
T2 construct: expressed in transfected cells; host or cells: CHO cells
T2 sequence (P46089 whole entry, species assumed): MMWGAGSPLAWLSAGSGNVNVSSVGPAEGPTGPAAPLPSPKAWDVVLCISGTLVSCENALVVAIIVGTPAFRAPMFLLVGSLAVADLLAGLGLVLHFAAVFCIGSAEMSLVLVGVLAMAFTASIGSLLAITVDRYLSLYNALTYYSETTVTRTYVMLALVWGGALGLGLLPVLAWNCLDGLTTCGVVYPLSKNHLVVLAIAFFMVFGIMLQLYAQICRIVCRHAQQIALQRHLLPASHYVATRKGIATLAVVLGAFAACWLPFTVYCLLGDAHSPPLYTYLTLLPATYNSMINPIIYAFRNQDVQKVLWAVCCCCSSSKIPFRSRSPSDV
Method in brief: as §1

[3] = CHO cells stably expressing GPR6, cAMP assay
[4] = CHO cells stably expressing GPR3, cAMP assay
[5] = CHO cells stably expressing GPR6, cAMP assay (Example 24)
[6] = CHO cells stably expressing GPR3, cAMP assay (Example 24)
[7] = procedure as described in Example 24

T1 sequence (P46095 whole entry): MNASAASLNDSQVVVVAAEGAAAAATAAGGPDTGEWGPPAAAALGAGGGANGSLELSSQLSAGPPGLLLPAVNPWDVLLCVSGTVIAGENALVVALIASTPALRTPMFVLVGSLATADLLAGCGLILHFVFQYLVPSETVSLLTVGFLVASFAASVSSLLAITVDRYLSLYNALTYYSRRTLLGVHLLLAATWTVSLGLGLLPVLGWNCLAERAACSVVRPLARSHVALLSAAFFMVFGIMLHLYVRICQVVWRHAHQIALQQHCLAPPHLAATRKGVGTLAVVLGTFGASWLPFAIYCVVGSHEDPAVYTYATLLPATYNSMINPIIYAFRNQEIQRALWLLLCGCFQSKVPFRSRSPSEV

Row | SMILES | IC50 ([1]; procedure of Example 24) | IC50 ([2]; procedure of Example 24) | IC50 [1, 5] | IC50 [2, 6] | other results
1 | CC(=O)OC1CCCN(c2nc3c(nc2-c2cnn(C)c2)CN(Cc2ccccc2)CC3)C1 (stereo not shown) [Compound 278, 1-[6-benzyl-3-(1-methyl-1H-pyrazol-4-yl)-5H,6H,7H,8H-pyrido[3,4-b]pyrazin-2-yl]piperidin-3-yl acetate] | 1 to 30 µM | 1 to 30 µM |  |  | 
2 | CC(C)(O)C(O)c1cc2nc(N3CCN(Cc4ccccc4F)CC3)c(-c3cnn(C(F)F)c3)nc2cn1 (stereo not shown) [Compound 559, 1-{3-[1-(difluoromethyl)-4-pyrazolyl]-2-{4-[(o-fluorophenyl)methyl]-1-piperazinyl}-1,4,6-triaza-7-naphthyl}-2-methyl-1,2-propanediol] |  |  |  |  | IC50 [1, 3]: 0.1 to 1 µM; IC50 [2, 4]: 1 to 30 µM
3 | COc1nccc(-c2nc3c(nc2N2CCC(Oc4ccc(F)cc4F)CC2)CCN(C(C)=O)C3)n1 [Compound 111, 1-{2-[4-(2,4-difluorophenoxy)piperidin-1-yl]-3-(2-methoxypyrimidin-4-yl)-5H,6H,7H,8H-pyrido[3,4-b]pyrazin-6-yl}ethan-1-one] |  |  | 0.1 to 1 µM | 0.1 to 1 µM | 
4 | CC(=O)N1CCc2nc(N3CCN(Cc4cnn(C)c4)CC3)c(-c3cnn(C)c3)nc2C1 [Compound 526, 1-[3-(1-methyl-4-pyrazolyl)-2-{4-[(1-methyl-4-pyrazolyl)methyl]-1-piperazinyl}-5,6,7,8-tetrahydro-1,4,6-triaza-6-naphthyl]-1-ethanone] |  |  |  |  | IC50 [1, 3]: ≥ 30 µM; IC50 [2, 4]: 0.1 to 1 µM
5 | CC(=O)N1CCc2nc(N3CCC(Oc4ccc(F)cc4F)CC3)c(-c3cccc(OC(C)(C)C)n3)nc2C1 [Compound 23, 1-{3-[6-(tert-butoxy)pyridin-2-yl]-2-[4-(2,4-difluorophenoxy)piperidin-1-yl]-5H,6H,7H,8H-pyrido[3,4-b]pyrazin-6-yl}ethan-1-one] |  |  |  |  | IC50 [1, 7]: 1 to 30 µM; IC50 [2, 7]: 0.1 to 1 µM
6 | CC(=O)N1CCc2nc(N3CCC(Oc4ccc(F)cc4F)CC3)c(-c3cnn([C@H](C)C#N)c3)nc2C1 (single isomer, unassigned) [Compound 272] | 0.1 to 1 µM | 1 to 30 µM |  |  | 
7 | Cn1cc(-c2nc3cnc(CO)cc3nc2N2CCN(Cc3ccc(F)cc3F)CC2)cn1 [Compound 194, (2-{4-[(2,4-difluorophenyl)methyl]piperazin-1-yl}-3-(1-methyl-1H-pyrazol-4-yl)pyrido[3,4-b]pyrazin-7-yl)methanol] |  |  | 0.1 to 1 µM | 1 to 30 µM | 
8 | CC(=O)N1CCc2nc(N3CCC(Oc4ccc(F)cc4F)CC3)c(C3=CC(O)CCC3)nc2C1 (stereo not shown) [Compound 234, 1-{2-[4-(2,4-difluorophenoxy)piperidin-1-yl]-3-(3-hydroxycyclohex-1-en-1-yl)-5H,6H,7H,8H-pyrido[3,4-b]pyrazin-6-yl}ethan-1-one] |  |  | 1 to 30 µM | 1 to 30 µM | 
9 | CC(=O)N1CCc2nc(N3CCC(Oc4ccc(F)cc4F)CC3)c(-c3cn[nH]c3F)nc2C1 [Compound 135, 1-(2-(4-(2,4-difluorophenoxy)piperidin-1-yl)-3-(5-fluoro-1H-pyrazol-4-yl)-7,8-dihydropyrido[3,4-b]pyrazin-6(5H)-yl)ethanone] |  |  | 0.1 to 1 µM | 1 to 30 µM | 
10 | CC(=O)N1CCc2nc(N3CCC(Cn4ccccc4=O)CC3)c(-c3cnn(C)c3)nc2C1 [Compound 522, 1-({1-[6-acetyl-3-(1-methyl-4-pyrazolyl)-5,6,7,8-tetrahydro-1,4,6-triaza-2-naphthyl]-4-piperidyl}methyl)-2(1H)-pyridinone] |  |  |  |  | IC50 [1, 3]: 1 to 30 µM; IC50 [2, 4]: 1 to 30 µM
11 | CC(=O)N1CCc2nc(N3CCN(Cc4ccccn4)CC3)c(-c3cnn(C)c3)nc2C1 [Compound 511, 1-[3-(1-methyl-4-pyrazolyl)-2-{4-[(2-pyridyl)methyl]-1-piperazinyl}-5,6,7,8-tetrahydro-1,4,6-triaza-6-naphthyl]-1-ethanone] |  |  |  |  | IC50 [1, 3]: ≥ 30 µM; IC50 [2, 4]: ≥ 30 µM
12 | CCn1cc(-c2nc3c(nc2N2CCC(Oc4ccc(F)cc4F)CC2)CCN(C(=O)C(C)(C)O)C3)cn1 [Compound 276, 1-{2-[4-(2,4-difluorophenoxy)piperidin-1-yl]-3-(1-ethyl-1H-pyrazol-4-yl)-5H,6H,7H,8H-pyrido [3,4-b]pyrazin-6-yl}-2-hydroxy-2-methylpropan-1-one] | < 0.1 µM | 0.1 to 1 µM |  |  | 
13 | Cn1cc(-c2nc3cnc(C(O)C(C)(C)O)cc3nc2N2CCC(Oc3ccc(F)cc3F)CC2)cn1 (stereo not shown) [Compound 263, 1-(2-(4-(2,4-difluorophenoxy)piperidin-1-yl)-3-(1-methyl-1H-pyrazol-4-yl)pyrido[3,4-b]pyrazin-7-yl)-2-methylpropane-1,2-diol] |  |  | 0.1 to 1 µM | 1 to 30 µM | 
14 | CC(=O)N1CCc2nc(N3CCN(C(=O)c4ccc(F)cc4)CC3)c(-c3cnn(C)c3)nc2C1 [Compound 255, 1-{2-[4-(4-fluorobenzoyl)piperazin-1-yl]-3-(1-methyl-1H-pyrazol-4-yl)-5H,6H,7H,8H-pyrido[3,4-b]pyrazin-6-yl}ethan-1-one] |  |  | 1 to 30 µM | 1 to 30 µM | 
15 | COc1cc(-c2nc3c(nc2N2CCC(Oc4ccc(F)cc4F)CC2)CCN(C(C)=O)C3)cnn1 [Compound 235, 1-{2-[4-(2,4-difluorophenoxy)piperidin-1-yl]-3-(6-methoxypyridazin-4-yl)-5H,6H,7H,8H-pyrido[3,4-b]pyrazin-6-yl}ethan-1-one] |  |  | 1 to 30 µM | 1 to 30 µM | 

More lines, main results first:

Row | IC50 ([1]; procedure of Example 24) | IC50 ([2]; procedure of Example 24) | IC50 [1, 5] | IC50 [2, 6] | SMILES | other results
16 | 1 to 30 µM | 1 to 30 µM |  |  | CC(=O)N1CCc2nc(N3CCN(Cc4ccccc4C#N)CC3)c(-c3cnn(C)c3)nc2C1 [Compound 351, 2-({4-[6-acetyl-3-(1-methyl-1H-pyrazol-4-yl)-5H,6H,7H,8H-pyrido[3,4-b]pyrazin-2-yl]piperazin-1-yl}methyl)benzonitrile] | 
17 |  |  | 0.1 to 1 µM | 1 to 30 µM | C[C@@H](O)[C@@H](O)c1cc2nc(N3CCC(Oc4ccc(F)cc4F)CC3)c(-c3cnn(C)c3)nc2cn1 (single isomer, unassigned) [Compound 472] | 
18 | 0.1 to 1 µM | 1 to 30 µM |  |  | COC[C@@H](O)c1cc2nc(N3CCC(Oc4ccc(F)cc4F)CC3)c(-c3cnn(C)c3)nc2cn1 (single isomer, unassigned) [Compound 642] | 
19 | 0.1 to 1 µM | 1 to 30 µM |  |  | Cn1cc(-c2nc3cc([C@@](C)(O)C(C)(C)O)ncc3nc2N2CCC(Oc3ccc(F)cc3F)CC2)cn1 (single isomer, unassigned) [Compound 739] | 
20 | 1 to 30 µM | 1 to 30 µM |  |  | COCCNc1cc2nc(-c3cnn(CF)c3)c(N3CCN(Cc4ccc(F)cc4F)CC3)nc2cn1 [Compound 762, (2-methoxyethyl)(3-{4-[(2,4-difluorophenyl)methyl]-1-piperazinyl}-2-[1-(fluoromethyl)-4-pyrazolyl]-1,4,6-triaza-7-naphthyl)amine] | 
21 | 1 to 30 µM | 1 to 30 µM |  |  | Cn1cc(-c2nc3cnc(C#N)cc3nc2N2CCC(Oc3ccc(F)cc3F)CC2)cn1 [Compound 293, 2-[4-(2,4-difluorophenoxy)piperidin-1-yl]-3-(1-methyl-1H-pyrazol-4-yl)pyrido[3,4-b]pyrazine-7-carbonitrile] | 
22 |  |  | 1 to 30 µM | 1 to 30 µM | COc1ccc(OC2CCN(c3nc4c(nc3-c3cnn(C)c3)CN(C(C)=O)CC4)CC2)c(OC)c1 [Compound 426, 1-{2-[4-(2,4-dimethoxyphenoxy)piperidin-1-yl]-3-(1-methyl-1H-pyrazol-4-yl)-5H,6H,7H,8H-pyrido[3,4-b]pyrazin-6-yl}ethan-1-one] | 
23 | < 0.1 µM | 1 to 30 µM |  |  | COc1nc(-c2nc3c(nc2N2CCC(Oc4ccc(F)cc4F)CC2)CCN(C(C)=O)C3)cnc1Cl [Compound 308] | 

Reference: US20260042755A1, “GPR6 INVERSE AGONISTS” (MapLight Therapeutics, Inc., priority 2022, published 2026)
